ChEMBL document CHEMBL1201862, “PubChem BioAssay data set” (2004)
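Growth conditions: 96-well plates. Treatment: test compound, 48 hours, 5 concentrations. Analysis: linear interpolation between bracketing concentrations; unreached endpoints set to highest concentration. Abbreviation: GI50, concentration required for 50% inhibition of growth.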 The source made the active and inactive calls. Rule as the data show it: active = GI50 up to about 1.1 µM and inactive = higher.

Columns and labels:
Experiment in all cases: inhibition of tumour cell growth, NCI panel, 48 h
786-0 = tested on: 786-0
A549 = tested on: A549
ACHN = tested on: ACHN
BT-549 = tested on: BT-549
CAKI-1 = tested on: CAKI-1
CCRF-CEM = tested on: CCRF-CEM
COLO 205 = tested on: COLO 205
DU-145 = tested on: DU-145
EKVX = tested on: EKVX
HCC 2998 = tested on: HCC 2998
HCT-116 = tested on: HCT-116
HCT-15 = tested on: HCT-15
HL-60 = tested on: HL-60
HOP-62 = tested on: HOP-62
HT-29 = tested on: HT-29
Hs-578T = tested on: Hs-578T
IGROV-1 = tested on: IGROV-1
K562 = tested on: K562
KM12 = tested on: KM12
LOX IMVI = tested on: LOX IMVI
M14 = tested on: M14
MCF7 = tested on: MCF7
MDA-MB-231 = tested on: MDA-MB-231
MDA-MB-435 = tested on: MDA-MB-435
MDA-N = tested on: MDA-N
MOLT-4 = tested on: MOLT-4
Malme-3M = tested on: Malme-3M
NCI-H226 = tested on: NCI-H226
NCI-H23 = tested on: NCI-H23
NCI-H460 = tested on: NCI-H460
NCI-H522 = tested on: NCI-H522
NCI/ADR-RES = tested on: NCI/ADR-RES
OVCAR-3 = tested on: OVCAR-3
OVCAR-4 = tested on: OVCAR-4
OVCAR-5 = tested on: OVCAR-5
OVCAR-8 = tested on: OVCAR-8
PC-3 = tested on: PC-3
RPMI-8226 = tested on: RPMI-8226
RXF 393 = tested on: RXF 393
SF-268 = tested on: SF-268
SF-295 = tested on: SF-295
SK-MEL-28 = tested on: SK-MEL-28
SK-MEL-2 = tested on: SK-MEL-2
SK-MEL-5 = tested on: SK-MEL-5
SK-OV-3 = tested on: SK-OV-3
SN12C = tested on: SN12C
SNB-19 = tested on: SNB-19
SNB-75 = tested on: SNB-75
SR = tested on: SR
SW-620 = tested on: SW-620
T47D = tested on: T47D
TK-10 = tested on: TK-10
U-251 = tested on: U-251
UACC-257 = tested on: UACC-257
UACC-62 = tested on: UACC-62
UO-31 = tested on: UO-31
A498 = tested on: A498
HOP-92 = tested on: HOP-92
SF-539 = tested on: SF-539

In the case of CCC(=O)N1NC(=O)C(CC)(CC)C1=O, the GI50 (786-0) is reported as > 100 µM (inactive), the GI50 (A549) is reported as > 100 µM (inactive) and the GI50 (ACHN) is reported as > 100 µM (inactive). For the same compound, the GI50 (BT-549) was > 100 µM (inactive), the GI50 (CAKI-1) was > 100 µM (inactive) and the GI50 (CCRF-CEM) was > 100 µM (inactive). The GI50 (COLO 205) was > 100 µM (inactive), the GI50 (DU-145) was > 100 µM (inactive) and the GI50 (EKVX) was > 100 µM (inactive). The GI50 (HCC 2998) was > 100 µM (inactive), the GI50 (HCT-116) was > 100 µM (inactive) and the GI50 (HCT-15) was > 100 µM. For the same compound, the GI50 (HL-60) was > 100 µM (inactive), the GI50 (HOP-62) was > 100 µM (inactive) and the GI50 (HT-29) was > 100 µM (inactive). For the same compound, the GI50 (Hs-578T) was 83 µM (inactive), the GI50 (IGROV-1) was > 100 µM (inactive) and the GI50 (K562) was > 100 µM (inactive). The GI50 (KM12) was > 100 µM (inactive), the GI50 (LOX IMVI) was > 100 µM (inactive) and the GI50 (M14) was > 100 µM (inactive). The GI50 (MCF7) was > 100 µM (inactive), the GI50 (MDA-MB-231) was > 100 µM (inactive) and the GI50 (MDA-MB-435) was > 100 µM (inactive). The GI50 (MDA-N) was > 100 µM (inactive), the GI50 (MOLT-4) was > 100 µM (inactive) and the GI50 (Malme-3M) was 0.276 µM (active). For the same compound, the GI50 (NCI-H226) was > 100 µM (inactive), the GI50 (NCI-H23) was > 100 µM (inactive) and the GI50 (NCI-H460) was > 100 µM (inactive). For the same compound, the GI50 (NCI-H522) was > 100 µM (inactive), the GI50 (NCI/ADR-RES) was > 100 µM (inactive) and the GI50 (OVCAR-3) was > 100 µM (inactive). The GI50 (OVCAR-4) was > 100 µM (inactive), the GI50 (OVCAR-5) was > 100 µM (inactive) and the GI50 (OVCAR-8) was > 100 µM (inactive). For the same compound, the GI50 (PC-3) was > 100 µM (inactive), the GI50 (RPMI-8226) was > 100 µM (inactive) and the GI50 (RXF 393) was > 100 µM (inactive). The GI50 (SF-268) was > 100 µM (inactive), the GI50 (SF-295) was > 100 µM (inactive) and the GI50 (SK-MEL-28) was > 100 µM (inactive). The GI50 (SK-MEL-2) was > 100 µM (inactive), the GI50 (SK-MEL-5) was > 100 µM (inactive) and the GI50 (SK-OV-3) was > 100 µM (inactive). For the same compound, the GI50 (SN12C) was > 100 µM (inactive), the GI50 (SNB-19) was > 100 µM (inactive) and the GI50 (SNB-75) was 36.8 µM (inactive). The GI50 (SR) was > 100 µM (inactive), the GI50 (SW-620) was > 100 µM (inactive) and the GI50 (T47D) was > 100 µM (inactive). The GI50 (TK-10) was > 100 µM (inactive), the GI50 (U-251) was > 100 µM (inactive) and the GI50 (UACC-257) was > 100 µM (inactive). For the same compound, the GI50 (UACC-62) was > 100 µM (inactive) and the GI50 (UO-31) was > 100 µM (inactive).

For O=C1CC(n2cccc2)c2cc(Br)sc21 (centres undefined), the GI50 (786-0) was 42 µM (inactive), the GI50 (A498) was > 100 µM (inactive) and the GI50 (A549) was > 100 µM (inactive). For the same compound, the GI50 (ACHN) was > 100 µM (inactive), the GI50 (BT-549) was > 100 µM (inactive) and the GI50 (CAKI-1) was > 100 µM (inactive). For the same compound, the GI50 (CCRF-CEM) was 18.7 µM (inactive), the GI50 (COLO 205) was > 100 µM (inactive) and the GI50 (DU-145) was > 100 µM (inactive). For the same compound, the GI50 (EKVX) was > 100 µM (inactive), the GI50 (HCT-116) was 66.7 µM (inactive) and the GI50 (HCT-15) was > 100 µM. For the same compound, the GI50 (HL-60) was 14.5 µM (inactive), the GI50 (HOP-62) was > 100 µM (inactive) and the GI50 (HOP-92) was > 100 µM (inactive). For the same compound, the GI50 (HT-29) was > 100 µM (inactive), the GI50 (Hs-578T) was > 100 µM (inactive) and the GI50 (IGROV-1) was > 100 µM (inactive). For the same compound, the GI50 (K562) was > 100 µM (inactive), the GI50 (KM12) was > 100 µM (inactive) and the GI50 (LOX IMVI) was 31.9 µM (inactive). The GI50 (M14) was > 100 µM (inactive), the GI50 (MCF7) was 69.5 µM (inactive) and the GI50 (MDA-MB-231) was > 100 µM (inactive). For the same compound, the GI50 (MDA-MB-435) was 87.5 µM (inactive), the GI50 (MDA-N) was 55.6 µM (inactive) and the GI50 (MOLT-4) was 16.1 µM (inactive). For the same compound, the GI50 (Malme-3M) was > 100 µM (inactive), the GI50 (NCI-H226) was > 100 µM (inactive) and the GI50 (NCI-H23) was 39.1 µM (inactive). For the same compound, the GI50 (NCI-H460) was > 100 µM (inactive), the GI50 (NCI-H522) was 21.6 µM (inactive) and the GI50 (NCI/ADR-RES) was > 100 µM (inactive). For the same compound, the GI50 (OVCAR-3) was > 100 µM (inactive), the GI50 (OVCAR-4) was > 100 µM (inactive) and the GI50 (OVCAR-5) was > 100 µM (inactive). For the same compound, the GI50 (OVCAR-8) was 36.9 µM (inactive), the GI50 (PC-3) was > 100 µM (inactive) and the GI50 (RPMI-8226) was 26.4 µM (inactive). The GI50 (SF-268) was > 100 µM (inactive), the GI50 (SF-295) was > 100 µM (inactive) and the GI50 (SF-539) was > 100 µM (inactive). For the same compound, the GI50 (SK-MEL-28) was > 100 µM (inactive), the GI50 (SK-MEL-2) was > 100 µM (inactive) and the GI50 (SK-MEL-5) was > 100 µM (inactive). The GI50 (SK-OV-3) was > 100 µM (inactive), the GI50 (SN12C) was 43.9 µM (inactive) and the GI50 (SNB-19) was > 100 µM (inactive). For the same compound, the GI50 (SNB-75) was 7.93 µM (inactive), the GI50 (SR) was 15.8 µM (inactive) and the GI50 (SW-620) was 35 µM (inactive). For the same compound, the GI50 (T47D) was 48.3 µM (inactive), the GI50 (TK-10) was > 100 µM (inactive) and the GI50 (U-251) was > 100 µM (inactive). The GI50 (UACC-257) was > 100 µM (inactive), the GI50 (UACC-62) was > 100 µM (inactive) and the GI50 (UO-31) was > 100 µM (inactive).

For Cc1[nH]c(-c2ccccc2)c(O)c1C(=O)OC12CC3CC(CC(C3)C1)C2, the GI50 (786-0) was 14 µM (inactive), the GI50 (A498) was 20.5 µM (inactive) and the GI50 (A549) was 12.1 µM (inactive). For the same compound, the GI50 (ACHN) was 16.1 µM (inactive), the GI50 (BT-549) was 17.1 µM (inactive) and the GI50 (CAKI-1) was 20.1 µM (inactive). The GI50 (CCRF-CEM) was 39 µM (inactive), the GI50 (COLO 205) was 13.9 µM (inactive) and the GI50 (DU-145) was 15.6 µM (inactive). For the same compound, the GI50 (EKVX) was 13.8 µM (inactive), the GI50 (HCT-116) was 16.7 µM (inactive) and the GI50 (HCT-15) was 11.9 µM. The GI50 (HL-60) was 55.6 µM (inactive), the GI50 (HOP-62) was 14.7 µM (inactive) and the GI50 (HOP-92) was 18.8 µM (inactive). For the same compound, the GI50 (HT-29) was 3.99 µM (inactive), the GI50 (Hs-578T) was 10.3 µM (inactive) and the GI50 (IGROV-1) was 14.1 µM (inactive). For the same compound, the GI50 (K562) was > 100 µM (inactive), the GI50 (KM12) was 5.01 µM (inactive) and the GI50 (M14) was 12.4 µM (inactive). For the same compound, the GI50 (MCF7) was 14.1 µM (inactive), the GI50 (MDA-MB-231) was 18.5 µM (inactive) and the GI50 (MDA-MB-435) was 15 µM (inactive). The GI50 (MDA-N) was 17.4 µM (inactive), the GI50 (MOLT-4) was 12.5 µM (inactive) and the GI50 (Malme-3M) was 14.1 µM (inactive). The GI50 (NCI-H226) was 14.1 µM (inactive), the GI50 (NCI-H23) was 16.3 µM (inactive) and the GI50 (NCI-H460) was 7.82 µM (inactive). For the same compound, the GI50 (NCI-H522) was 10.1 µM (inactive), the GI50 (NCI/ADR-RES) was 13.7 µM (inactive) and the GI50 (OVCAR-3) was 14.6 µM (inactive). The GI50 (OVCAR-4) was 16.3 µM (inactive), the GI50 (OVCAR-5) was 13.8 µM (inactive) and the GI50 (OVCAR-8) was 12.9 µM (inactive). For the same compound, the GI50 (PC-3) was 15.5 µM (inactive), the GI50 (RPMI-8226) was 37 µM (inactive) and the GI50 (RXF 393) was 6.73 µM (inactive). The GI50 (SF-268) was 13.9 µM (inactive), the GI50 (SF-295) was 2.93 µM (inactive) and the GI50 (SF-539) was 11 µM (inactive). For the same compound, the GI50 (SK-MEL-28) was 14.7 µM (inactive), the GI50 (SK-MEL-2) was 16.7 µM (inactive) and the GI50 (SK-MEL-5) was 14.6 µM (inactive). The GI50 (SK-OV-3) was 14.7 µM (inactive), the GI50 (SN12C) was 16.4 µM (inactive) and the GI50 (SNB-19) was 15 µM (inactive). For the same compound, the GI50 (SNB-75) was 10.8 µM (inactive), the GI50 (SR) was 12.6 µM (inactive) and the GI50 (SW-620) was 16.2 µM (inactive). The GI50 (T47D) was 15.8 µM (inactive), the GI50 (U-251) was 14.9 µM (inactive) and the GI50 (UACC-257) was 16.5 µM (inactive). The GI50 (UACC-62) was 17.3 µM (inactive) and the GI50 (UO-31) was 17 µM (inactive).
